The values that follow come from patent US20260022112A1, “NOVEL CO-CRYSTAL OF ENAVOGLIFLOZIN” (DAEWOONG PHARMACEUTICAL CO., LTD., priority 2022, published 2026).

The nature of data set [1]: Solubility in artificial gastric fluid (FaSSGF). The following applies: fassgf or other biorelevant, thermodynamic from solid. Type of data set: physicochemical.
Data set [2] is described as follows: Stress stability evaluation, 60° C., 4 weeks, HPLC. Format: physicochemical.
Data set [3] in a line: Pharmacokinetic evaluation in beagle dogs. Type of data set: in vivo. The conditions noted are these: plasma, 1 mg/kg. How it is done:
A test was conducted to confirm whether the pharmacokinetic profiles of enavogliflozin/proline co-crystals were improved in beagle dogs. Each of the crystalline form A of enavogliflozin and the proline co-crystal was orally administered at a dose of 1 mg/kg to male beagle dogs by setting the crystalline form A of enavogliflozin as a control and the proline co-crystal as a comparative group, and blood collection was conducted before administration (0 hour), and for 0.083, 0.25, 0.5, 0.75, 1, 1.5, 2, 4, 6, 8, 12, and 24 hours (a total of 13 times). Blood drug concentrations were analyzed by LC-MS/MS using plasma separated from the collected samples, and pharmacokinetic parameters such as the maximum observed plasma concentration (Cmax), an area under the plasma concentration-time curve (AUClast and AUCinf), a time-to-maximum observed plasma concentration (Tmax), and a half-life (T1/2) were calculated and interpreted using the WinNonlin 5.0.1 program.

Data set [4] in a line: Solubility in artificial intestinal fluid (FaSSIF). Type of data set: physicochemical. The conditions noted are these: thermodynamic from solid.
For data set [5] the following is noted: crystalline form of Patent Document 2; cited from earlier work.

Structures are written as SMILES. Converted amounts (≈) assume the structure as drawn. Like-named read-outs stand apart in the source and are kept apart here.

The solubility is the dissolved amount per volume that the medium holds. As a reminder, the AUC(0-inf) is the area under the concentration-time curve extrapolated to infinity. A higher AUC(0-inf) goes with high exposure. For orientation: AUC(0-t) means exposure summed from dosing to a finite time, without extrapolation to infinity. A lower AUC(0-t) goes with less exposure. The half-life is the time in which the quantity being followed falls by half. The low end stands for fast loss, the high end for slow loss. For orientation: Cmax means the peak of the concentration-time curve. A word on the Tmax: it is the time from dosing to the highest level. Consider `OC[C@H]1O[C@@H](c2cc(Cc3ccc(C4CC4)cc3)c(Cl)c3c2CCO3)[C@H](O)[C@@H](O)[C@@H]1O` [Crystalline form A of enavogliflozin, enavogliflozin], for which the solubility at 30 min in data set [1] (30 minutes) was 310 µg/mL (≈ 694 µM); in data set [4] (30 minutes) it was 690 µg/mL (≈ 1540 µM). The solubility at 1 h in data set [1] (1 hour) worked out at 340 µg/mL (≈ 761 µM); in data set [4] (1 hour), 940 µg/mL (≈ 2100 µM). Moreover, the solubility at 2 h in data set [1] (2 hours) is 350 µg/mL (≈ 783 µM); in data set [4] (2 hours) it was 1000 µg/mL (≈ 2240 µM). For the same molecule, the solubility at 4 h was 350 µg/mL (≈ 783 µM) in data set [1] (4 hours) and 920 µg/mL (≈ 2060 µM) in data set [4] (4 hours). The “Purity (HPLC) in stress stability evaluation” value (shortened to “Purity (HPLC)”) in data set [2] (2 weeks, listed as Crystalline form of enavogliflozin) was 98.8%; in data set [2] (4 weeks, listed as Crystalline form of enavogliflozin), 99.1%; in data set [2] (Initial, listed as Crystalline form of enavogliflozin) it was 99.1%. Also, in data set [3] (male, beagle, dog, po), the AUC(0-inf) came out at 4640 ng·h/mL. The AUC(0-t) in data set [3] (male, beagle, dog, po) came out at 4340 ng·h/mL. The half-life in data set [3] (male, beagle, dog, po) is 5.32 h. Also, the peak concentration (Cmax) in data set [3] (male, beagle, dog, po, read-out: Cmax) turned out to be 482 ng/mL. For the same molecule, in data set [3] (male, beagle, dog, po, read-out: Tmax), the Tmax stood at 4 h. Besides, the solubility at 0 h in data set [4] (Initial) is 10000 µg/mL (≈ 22400 µM).

On to `OC[C@H]1O[C@@H](c2cc(Cc3ccc(C4CC4)cc3)c(Cl)c3c2CCO3)[C@H](O)[C@@H](O)[C@@H]1O` [Enavogliflozin/proline co-crystal], for which the “Purity (HPLC)” value in data set [2] (2 weeks) came out at 99.9%. Besides, in data set [2] (4 weeks), the “Purity (HPLC)” value came to 99.8% and the “Thermal stability compared with crystalline form of enavogliflozin” value was “equivalent to that of the crystalline form of enavogliflozin”. Besides, in data set [2] (Initial), the “Purity (HPLC)” value was 99.9%. In data set [3] (male beagle dogs, oral), this molecule showed an AUCinf of 5341.58 ng·h/mL, an AUClast of 4428.20 ng·h/mL, a Cmax of 482.60 ng/mL and a T1/2 of 6.10 h. In data set [3] (male beagle dogs, oral), the Tmax came out at 5.20 h.

On to `OC[C@H]1O[C@@H](c2cc(Cc3ccc(C4CC4)cc3)c(Cl)c3c2CCO3)[C@H](O)[C@@H](O)[C@@H]1O` [enavogliflozin], for which the “Solubility (water solubility)” value in data set [5] is 250 µg/mL (≈ 559 µM).
